Laboratory results published in patent US11040954B1, “CXCR3 receptor agonists” (RECEPTOS LLC, priority 2016, dated 2021).

Biological target: T1, CXCR3 (Homo sapiens, UniProt P49682)
T1 construct: host or cells: CHO-K1 (cAMP Hunter CHOK1 CXCR3 Gi cell line)
T1 sequence (P49682 1-368): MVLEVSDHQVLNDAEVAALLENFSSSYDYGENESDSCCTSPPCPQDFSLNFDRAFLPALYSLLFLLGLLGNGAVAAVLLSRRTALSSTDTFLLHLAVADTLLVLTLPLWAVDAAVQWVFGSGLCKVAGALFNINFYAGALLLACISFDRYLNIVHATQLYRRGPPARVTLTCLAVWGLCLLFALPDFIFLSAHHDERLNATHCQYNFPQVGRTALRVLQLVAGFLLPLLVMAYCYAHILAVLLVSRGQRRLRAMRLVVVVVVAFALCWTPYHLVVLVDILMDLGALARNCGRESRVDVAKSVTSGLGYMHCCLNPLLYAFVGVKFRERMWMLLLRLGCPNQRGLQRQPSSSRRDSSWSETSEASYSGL
Experiment: CXCR3 cAMP agonist assay (cAMP Hunter CHOK1 CXCR3 Gi cell line, forskolin-stimulated, HitHunter cAMP detection)
Assay type: cell-based
Conditions: cAMP Hunter CHOK1 CXCR3 Gi cells, 20 μM forskolin, 30 minutes; read-out: Activity (CXCR3 cAMP agonist assay compound EC50)
Method in brief: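 CHOK1 cells expressing human CXCR3 with Gi coupling, 50,000/well in suspension in HBSS/10 mM HEPES/0.1% BSA pH 7.4, were co-treated with 20 μM forskolin and compound (12-point, 0-10 μM, 1% DMSO) for 30 min. cAMP was read by enzyme-complementation luminescence; CXCL11 dose response set maximum efficacy.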

EC50 [µM]	Structure (SMILES)
0.05 to 0.25	Cc1cc(NC(=O)[C@H](CCN)NC(=O)[C@@H]2Cc3ccccc3CN2C(=O)CCC(=O)N2C[C@@H](C)O[C@@H](C)C2)ccc1Cl [Compound 12-1, (S)—N—((S)-4-amino-1-((4-chloro-3-methylphenyl)amino)-1-oxobutan-2-yl)-2-(4-((2R,6S)-2,6-dimethylmorpholino)-4-oxobutanoyl)-1,2,3,4-tetrahydroisoquinoline-3-carboxamide]
0.05 to 0.25	CS(=O)(=O)Oc1ccc2c(c1)CN(C(=O)CCC(=O)c1ccccc1)[C@H](C(=O)N[C@@H](CCN)C(=O)Nc1ccc(Cl)c(Cl)c1F)C2 [Compound 29-1, (S)-3-(((S)-4-amino-1-((3,4-dichloro-2-fluorophenyl)amino)-1-oxobutan-2-yl)carbamoyl)-2-(4-oxo-4-phenylbutanoyl)-1,2,3,4-tetrahydroisoquinolin-7-yl methanesulfonate]
< 0.05	CC1(C)CCc2cc(NC(=O)[C@H](CCN)NC(=O)[C@@H]3Cc4ccccc4CN3C(=O)CCC(=O)c3ccccc3)ccc21 [Compound 2-72]
< 0.05	Cc1cc(NC(=O)[C@H](CCN)NC(=O)[C@@H]2Cc3ccccc3CN2C(=O)CCC(=O)N2CCC(C)(C)CC2)ncc1Cl [Compound 12-159]
< 0.05	Cc1cc(NC(=O)[C@H](CCN)NC(=O)[C@@H]2Cc3ccccc3CN2C(=O)CCC(=O)NCCC(C)C)ccc1Cl [Compound 12-80]
< 0.05	Cc1cc(NC(=O)[C@H](CCN)NC(=O)[C@@H]2Cc3ccccc3CN2C(=O)CCC(=O)N2CCOCC2(C)C)ccc1Cl [Compound 12-23]
< 0.05	Cc1cc(NC(=O)[C@H](CCN)NC(=O)[C@@H]2Cc3ccccc3CN2C(=O)CCC(=O)NCC(C)(C)C)ccc1Cl [Compound 12-91]
< 0.05	Cc1cc(NC(=O)[C@H](CCN(C(C)C)C(C)C)NC(=O)[C@@H]2Cc3ccccc3CN2C(=O)CCC(=O)c2ccccc2)ccc1Cl [Compound 3-7]
< 0.05	Cc1cc(C#N)c(NC(=O)[C@H](CCN)NC(=O)[C@@H]2Cc3ccccc3CN2C(=O)CCC(=O)c2ccccc2)cc1Cl [Compound 35-2]
0.05 to 0.25	COc1c(C)cccc1NC(=O)[C@H](CCN)NC(=O)[C@@H]1Cc2ccccc2CN1C(=O)CCC(=O)c1ccccc1 [Compound 2-51]
0.05 to 0.25	NCC[C@H](NC(=O)[C@@H]1Cc2ccccc2CN1C(=O)CCC(=O)c1ccccc1)C(=O)Nc1cc(Cl)ccc1Cl [Compound 14-11]
0.25 to 0.5	Cc1cccc(NC(=O)[C@H](CCN)NC(=O)[C@@H]2Cc3ccccc3CN2C(=O)CCC(=O)c2ccccc2)c1O [Compound 2-50]
0.25 to 0.5	NCC[C@H](NC(=O)[C@@H]1Cc2ccccc2CN1C(=O)CCC(=O)c1ccccc1)C(=O)Nc1cc(Cl)c(F)c(Cl)c1 [Compound 27-2]
< 0.05	Cc1cc(NC(=O)[C@H](CCN)NC(=O)[C@@H]2Cc3ccccc3CN2C(=O)CCC(=O)N2CCC(C)(C)CC2)cc(C)c1Cl [Compound 10-12]
< 0.05	NCC[C@H](NC(=O)[C@@H]1Cc2ccccc2CN1C(=O)CCC(=O)c1ccccc1)C(=O)Nc1ccc(F)c(C(F)(F)F)c1 [Compound 2-14]
0.25 to 0.5	NCC[C@H](NC(=O)[C@@H]1Cc2ccccc2CN1C(=O)CCC(=O)c1ccccc1)C(=O)Nc1ccc2cccnc2c1 [Compound 2-45]
< 0.05	Cc1cc(NC(=O)[C@H](CCN)NC(=O)[C@@H]2Cc3ccccc3CN2C(=O)CCC(=O)N2CCCC(F)C2)ccc1Cl (stereo partly shown) [Compound 12-63]
0.25 to 0.5	NCC[C@H](NC(=O)[C@@H]1Cc2ccccc2CN1C(=O)CCC(=O)c1ccccc1)C(=O)Nc1ccc(C(F)(F)F)c(F)c1 [Compound 2-11]
< 0.05	NCC[C@H](NC(=O)[C@@H]1Cc2ccccc2CN1C(=O)CCC(=O)N1CCC2(CC2)C1)C(=O)Nc1ccc(Cl)c(Cl)c1F [Compound 15-46]
0.05 to 0.25	Cc1cc(Cl)ccc1NC(=O)[C@H](CCCCN)NC(=O)[C@@H]1Cc2ccccc2CN1C(=O)CCC(=O)c1ccccc1 [Compound 1-24]
< 0.05	CC1(C)CCN(C(=O)CCC(=O)N2Cc3cc(F)ccc3C[C@H]2C(=O)N[C@@H](CCN)C(=O)Nc2ccc(Cl)c(Cl)c2F)CC1 [Compound 15-60]
< 0.05	NCC[C@H](NC(=O)[C@@H]1Cc2ccccc2CN1C(=O)CCC(=O)c1ccccc1)C(=O)Nc1cnc2ccccc2c1 [Compound 2-44]
0.25 to 0.5	Cc1cc(NC(=O)[C@H](CCN)NC(=O)[C@@H]2Cc3ccccc3CN2C(=O)CCC(=O)N(C)c2ccccc2)ccc1Cl [Compound 12-124]
< 0.05	NCC[C@H](NC(=O)[C@@H]1Cc2ccccc2CN1C(=O)CCC(=O)c1ccccc1)C(=O)Nc1cccc(Cl)c1Cl [Compound 14-8]
0.25 to 0.5	CC(=O)N1CCN(C(=O)CCC(=O)N2Cc3ccccc3C[C@H]2C(=O)N[C@@H](CCN)C(=O)Nc2ccc(Cl)c(C)c2)CC1 [Compound 12-106]

EC50 [µM]	Structure (SMILES)
< 0.05	Cc1cc(NC(=O)[C@H](CCN)NC(=O)[C@@H]2Cc3ccccc3CN2C(=O)CCC(=O)N2CCN(C)C(C)(C)C2)ccc1Cl [Compound 12-131]
0.25 to 0.5	Cc1cc(NC(=O)[C@H](CCN)NC(=O)[C@@H]2Cc3ccccc3CN2C(=O)CCC(=O)N2CCN(C(=O)N(C)C)CC2)ccc1Cl [Compound 12-109]
0.05 to 0.25	NCC[C@H](NC(=O)[C@@H]1Cc2ccccc2CN1C(=O)CCC(=O)c1ccccc1)C(=O)Nc1cc(F)c(Cl)c(Cl)c1 [Compound 27-6]
0.05 to 0.25	Cc1cc(NC(=O)C(CCC2(N(C)C)COC2)NC(=O)[C@@H]2Cc3ccccc3CN2C(=O)CCC(=O)c2ccccc2)ccc1Cl (stereo partly drawn) [Compound 21-1, (3S)—N-(1-((4-chloro-3-methylphenyl)amino)-4-(3-(dimethylamino)oxetan-3-yl)-1-oxobutan-2-yl)-2-(4-oxo-4-phenylbutanoyl)-1,2,3,4-tetrahydroisoquinoline-3-carboxamide]
< 0.05	Cc1ccc(NC(=O)[C@H](CCN)NC(=O)[C@@H]2Cc3ccccc3CN2C(=O)CCC(=O)c2ccccc2)cc1Cl [Compound 2-16]
0.25 to 0.5	Cc1cc(Cl)ccc1NC(=O)[C@H](CCN)NC(=O)[C@@H]1Cc2ccccc2CN1C(=O)CCC(=O)c1ccccc1 [Compound 2-10]
0.05 to 0.25	Cc1cc(NC(=O)[C@H](CCN)NC(=O)[C@@H]2Cc3ccccc3CN2C(=O)CCC(=O)N2CCC(O)CC2)ccc1Cl [Compound 12-6]
0.05 to 0.25	Cc1cc(NC(=O)[C@H](CCCCN)NC(=O)[C@@H]2Cc3ccccc3CN2C(=O)CCC(=O)c2cccc(N(C)C)c2)ccc1Cl [Compound 7-6]
< 0.05	Cc1cc(NC(=O)[C@H](CCN)NC(=O)[C@@H]2Cc3ccccc3CN2C(=O)CCC(=O)N2CCC[C@H]2c2ccccc2)ccc1Cl [Compound 12-147]
< 0.05	NCC[C@H](NC(=O)[C@@H]1Cc2ccccc2CN1C(=O)CCC(=O)N1CCCCC1C(F)F)C(=O)Nc1ccc(Cl)c(Cl)c1F (stereo partly shown) [Compound 15-56]
< 0.05	Cc1cc(NC(=O)[C@H](CCN)NC(=O)[C@@H]2Cc3ccccc3CN2C(=O)CCC(=O)N(C)C(C)(C)C)ccc1Cl [Compound 12-93]
< 0.05	Cc1cc(NC(=O)[C@H](CCN)NC(=O)[C@@H]2Cc3ccccc3CN2C(=O)CCC(=O)N2CCCCC2C#N)ccc1Cl (stereo partly shown) [Compound 12-84]
< 0.05	NCC[C@H](NC(=O)[C@@H]1Cc2ccccc2CN1C(=O)CCC(=O)c1ccccc1)C(=O)Nc1ccc2c(c1)CCCC2 [Compound 2-46]
0.05 to 0.25	NCC[C@H](NC(=O)[C@@H]1Cc2ccccc2CN1C(=O)CCC(=O)N1CCCC[C@H]1CO)C(=O)Nc1ccc(Cl)c(Cl)c1F [Compound 15-19]
0.25 to 0.5	Cc1ccccc1NC(=O)[C@H](CCCCN)NC(=O)[C@@H]1Cc2ccccc2CN1C(=O)CCC(=O)c1ccccc1 [Compound 1-12]
< 0.05	Cc1cc(NC(=O)[C@H](CCN)NC(=O)[C@@H]2Cc3ccccc3CN2C(=O)CCC(=O)c2ccccc2)ncc1Cl [Compound 4-16]
> 0.5	Cc1cccc(NC(=O)C2(NC(=O)[C@@H]3Cc4ccccc4CN3C(=O)CCC(=O)c3ccccc3)CCNCC2)c1Cl [Compound 11-1, (S)—N-(4-((2-chloro-3-methylphenyl)carbamoyl)piperidin-4-yl)-2-(4-oxo-4-phenylbutanoyl)-1,2,3,4-tetrahydroisoquinoline-3-carboxamide]
< 0.05	Cc1cc(NC(=O)[C@H](CCN)NC(=O)[C@@H]2Cc3ccccc3CN2C(=O)CCC(=O)N2CCC[C@H]2CF)ccc1Cl [Compound 12-139]
> 0.5	Cc1ccc(C(=O)CCC(=O)N2Cc3ccccc3C[C@H]2C(=O)N[C@@H](CCCCN)C(=O)Nc2ccc(Cl)c(C)c2)cc1F [Compound 7-5]
< 0.05	Cc1cc(NC(=O)[C@H](CCN)NC(=O)[C@@H]2Cc3ccccc3CN2C(=O)CCC(=O)N2C(C)CCCC2C)ccc1Cl (stereo partly shown) [Compound 12-41]
< 0.05	CC1(C)CCCN(C(=O)CCC(=O)N2Cc3cc(F)ccc3C[C@H]2C(=O)N[C@@H](CCN)C(=O)Nc2ccc(Cl)c(Cl)c2F)C1 [Compound 15-57]
0.25 to 0.5	Cc1cc(NC(=O)[C@H](CCN)NC(=O)[C@@H]2Cc3ccccc3CN2C(=O)CCC(=O)N(C)CC(F)(F)F)ccc1Cl [Compound 12-119]
< 0.05	CN1Cc2ccc(NC(=O)[C@H](CCN)NC(=O)[C@@H]3Cc4ccccc4CN3C(=O)CCC(=O)c3ccccc3)cc2C1 [Compound 2-82]
0.05 to 0.25	COc1cc(Cl)ccc1NC(=O)[C@H](CCN)NC(=O)[C@@H]1Cc2ccccc2CN1C(=O)CCC(=O)c1ccccc1 [Compound 13-4]
